Laboratory results taken from patent US20240409536A1, “COMPOUNDS AND METHODS FOR MODULATING SPLICING” (REMIX THERAPEUTICS INC., priority 2021, published 2024).
pIC50: −log10 of the molar value.

Tests used:
[1] = tested on: Target C mRNA; assay: Gene panel canonical junction qPCR assay, Target C CJ mRNA decrease; format: cell-based; details: Homo sapiens, canonical junction qPCR, read-out: Target C IC50 (decrease in CJ mRNA levels)
In short: (§1)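 A673 or K562 cells were treated with compound, and lysates underwent cDNA synthesis and qPCR with a CY5 5′-nuclease probe or primer spanning the canonical exon junction. ΔCt versus GAPDH, GUSB or PPIA was normalized to DMSO (2^(−ΔΔCt)), converted to percentage response and fitted four-parameter logistic for IC50.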

[2] = tested on: HiBiT-tagged HTT protein; assay: HiBiT protein abundance assay, HTT (K562 HiBiT knock-in cells); format: cell-based, human; details: 24 hours
In short: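 K562 cells with endogenous HiBiT knock-in tag, 10-point 3-fold dilutions (top 10 μM final, ≤0.25% DMSO), 24 h at 37 °C. Lytic Nano-Glo HiBiT luminescence, normalized to DMSO and unmodified K562 baselines; IC50 is concentration giving 50% protein abundance from four-parameter fit.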

[3] = tested on: SMN2 mRNA; assay: Gene panel canonical junction qPCR assay, SMN2 CJ mRNA decrease; format: cell-based, human; details: Homo sapiens, canonical junction qPCR, read-out: SMN2 IC50 (decrease in CJ mRNA levels)
In short: as §1

[4] = tested on: MYB mRNA; assay: Gene panel canonical junction qPCR assay, MYB CJ mRNA decrease; format: cell-based, human; details: Homo sapiens, canonical junction qPCR, read-out: MYB IC50 (decrease in CJ mRNA levels)
In short: as §1

[5] = tested on: HTT mRNA; assay: Gene panel canonical junction qPCR assay, HTT CJ mRNA decrease; format: cell-based, human; details: Homo sapiens, canonical junction qPCR, read-out: HTT IC50 (decrease in CJ mRNA levels)
In short: as §1

pIC50 [1]: 5.00 to 6.00
pIC50 [2]: 5.00 to 6.00
pIC50 [3]: 5.00 to 6.00
pIC50 [4]: 5.00 to 6.00
pIC50 [5]: 5.00 to 6.00
Compound: Cc1cn2cc(NC(=O)c3ccc(N4CCN5CCOC[C@H]5C4)c4nccnc34)cc(F)c2n1 [Compound 256, (R)—N-(8-fluoro-2-methylimidazo[1,2-a]pyridin-6-yl)-8-(hexahydropyrazino[2,1-c][1,4]oxazin-8(1H)-yl)quinoxaline-5-carboxamide]
